Results taken from article PMC7400207, “It Takes Two: Dimerization Is Essential for the Broad-Spectrum Predatory and Defensive Activities of the Venom Peptide Mp1a from the Jack Jumper Ant Myrmecia pilosula” (Biomedicines, 2020).
In brackets after ≈: the same amount, converted by molar mass. Like-named read-outs stand apart in the source and are kept apart here.

Key:
human red blood cells = conditions: cited from earlier work
Experimental: Table 2 Summary of bioassay data for synthetic Mp1a and analogues, including effective concentration (EC50) for activation of F11 cells, concentrations that caused 50% inhibition (IC50) for inhibition of larval development of H. contortus; median lethal dose (LD50) for lethal insecticidal effects on D. melanogaster; concentrations required to induce 50% cell death (CC50) for effects on viability o | column: Hemolysis (HC50 µM) ^b

S. aureus NARSA-VRS10 = conditions: taken from Dekan et al.; cited from earlier work
Haemonchus contortus = test: microbe, parasite or virus in culture; format: cell-based
Experimental: Sheep were infected with H. contortus Kirby isolate (field isolate from the University of New England Kirby Research Farm in 1986; susceptible to all commercial anthelmintics) and housed at the Commonwealth Scientific and Industrial Research Organisation (CSIRO) FD McMaster Laboratory, Armidale, NSW. All animal procedures were approved by the FD McMaster Animal Ethics Committee, CSIRO (Approval Number AEC 17/12, approval date 15.6.2017). Eggs were prepared from overnight fecal collection as described. In brief, feces were filtered through mesh filters, settled, and supernatant removed by vacuum. Eggs were recovered by density centrifugation using 10 and 25% (w/v) sucrose solutions, centrifuged at 650× g for 7 min. Eggs were recovered from the interface of the two sucrose layers, rinsed with distilled water, sterilized with bleach, rinsed again, and diluted to 4500 eggs/mL. Tylosin tartrate (800 μg/mL) and amphotericin B (25.0 μg/mL) were added, and eggs were used immediately for larval development assays.
Assays were conducted using 96-well microtitre plates, with each well containing 50 μL of 2% agar, 20 μL of egg solution and 20 μL of peptide solution in water. The commercial anthelmintic levamisole (Sigma Aldrich) was used as a positive control (final 1% v/v). Negative controls contained equivalent volumes of water or DMSO (final 1% v/v). Plates were incubated at 26 °C for six days. After 24 h, each well was fed with 10 μL of a nutrient solution containing Escherichia coli XL1-Blue1 (grown overnight at 37 °C) and growth medium. The growth medium consisted of yeast extract (1% w/v), Earle’s salt solution (10% v/v), saline solution (0.9% NaCl, w/v), and sodium bicarbonate (1 mM) in Luria-Bertani medium (LB). Larvae were killed and stained with Lugol’s iodine solution after six days. Larvae that had developed to the infective L3 stage were counted, and the numbers in treated assay wells were expressed as a percentage of the number of infective L3 stage larvae in multiple control wells. Concentrations that caused 50% inhibition (IC50 values) were calculated from three experiments of duplicate assays.

CC[C@H](C)[C@H](N)C(=O)N[C@@H](CC(=O)O)C(=O)N[C@@H](Cc1c[nH]c2ccccc12)C(=O)N[C@@H](CCCCN)C(=O)N[C@@H](CCCCN)C(=O)N[C@H](C(=O)N[C@@H](CC(=O)O)C(=O)N[C@@H](Cc1c[nH]c2ccccc12)C(=O)N[C@@H](CCCCN)C(=O)N[C@@H](CCCCN)C(=O)N[C@H](C(=O)N[C@@H](CO)C(=O)N[C@@H](CCCCN)C(=O)N[C@@H](CCCCN)C(=O)N[C@H](C(=O)N[C@H]1CSSC[C@@H](C(=O)N[C@@H](CCCCN)C(=O)N[C@@H](CCCCN)C(=O)N[C@H](C(=O)N[C@@H](CC(C)C)C(=O)N[C@@H](CCCCN)C(=O)N[C@@H](CCC(N)=O)C(N)=O)C(C)C)NC(=O)[C@H](C(C)C)NC(=O)[C@H]([C@@H](C)O)NC(=O)[C@H](CCCCN)NC(=O)[C@H](C(C)C)NC(=O)[C@H](CC(C)C)NC(=O)[C@H](C(C)C)NC(=O)[C@@H](NC(=O)[C@@H](NC(=O)CNC(=O)[C@H](CCCCN)NC(=O)[C@H](CO)NC(=O)[C@@H](NC(=O)[C@H](CC(C)C)NC(=O)CNC(=O)[C@@H](NC(=O)[C@@H](N)CC(C)C)[C@@H](C)CC)C(C)C)[C@@H](C)O)CSSC[C@@H](C(=O)N[C@@H](CCCCN)C(=O)N[C@@H](Cc2ccccc2)C(=O)N[C@@H](CC(C)C)C(N)=O)NC(=O)[C@H](C)NC(=O)[C@H](CCCCN)NC(=O)[C@H](CC(C)C)NC(=O)[C@H](CCSC)NC(=O)[C@H](C(C)C)NC(=O)[C@H](CCCCN)NC1=O)[C@@H](C)O)C(C)C)C(C)C [Analogue 1a, ∆-myrtoxin-Mp1a]
Hemolysis (HC50) (human red blood cells): 2.2 µM
MIC (S. aureus NARSA-VRS10): 0.8 µM (≈ 4.49 µg/mL)
IC50 (Haemonchus contortus; H. contortus Kirby isolate, egg to infective L3, 6 days, 26 °C, three experiments of duplicate assays, ± SEM, for 1a the component at higher concentrations (about 90% of population), read-out: Anthelmintic Activity (IC50), inhibition of larval development): 6.8 ± 0.5 µM
IC50 (Haemonchus contortus; H. contortus larval development, component of the response at < 2 µM, read-out: IC50 for the response observed at lower concentrations (biphasic curve)): 0.19 µM
Larval development as % of that observed in control assays (Haemonchus contortus; at low micromolar concentrations (< 2 µM)): 90%
Fold more potent than spider-venom peptide Hi1a (Haemonchus contortus; larval development, same assay): about threefold
